Results as given in article PMC2654246 (The Journal of neuroscience : the official journal of the …, 2009).
Marks after values point to notes of the source that are not given here.

How the values were obtained:
[1] = molecular target: αP272Cβγδ nAChR (Mus musculus, UniProt P02716+P04756+P04760, P292C); assay: Rates of reaction of engineered Cys with MTSEA; assay type: cell-based; details: MTSEA with ACh (EC80-EC100)
[2] = molecular target: αV271Cβγδ nAChR (Mus musculus, UniProt P02716+P04756+P04760, V291C); assay: Rates of reaction of engineered Cys with MTSEA; assay type: cell-based; details: MTSEA with ACh (EC80-EC100)
[3] = molecular target: αL263Cβγδ nAChR (Mus musculus, UniProt P02716+P04756+P04760+P09690, L283C); assay: Rates of reaction of engineered Cys with MTSEA; assay type: cell-based; details: αL263C; MTSEA alone; component not specified, classed slow
[4] = tested on: nAChR α-subunit single Cys mutants (αβγδ); details: 2 min, αA270C, αL273C, αI274C, αK276C, αY277C
[5] = molecular target: αS266Cβγδ nAChR (Mus musculus, UniProt P02716+P04756+P04760, S286C); assay: Rates of reaction of engineered Cys with MTSEA; assay type: cell-based
αS266Cβγδ nAChR, sequence (P04756 21-457 S286C): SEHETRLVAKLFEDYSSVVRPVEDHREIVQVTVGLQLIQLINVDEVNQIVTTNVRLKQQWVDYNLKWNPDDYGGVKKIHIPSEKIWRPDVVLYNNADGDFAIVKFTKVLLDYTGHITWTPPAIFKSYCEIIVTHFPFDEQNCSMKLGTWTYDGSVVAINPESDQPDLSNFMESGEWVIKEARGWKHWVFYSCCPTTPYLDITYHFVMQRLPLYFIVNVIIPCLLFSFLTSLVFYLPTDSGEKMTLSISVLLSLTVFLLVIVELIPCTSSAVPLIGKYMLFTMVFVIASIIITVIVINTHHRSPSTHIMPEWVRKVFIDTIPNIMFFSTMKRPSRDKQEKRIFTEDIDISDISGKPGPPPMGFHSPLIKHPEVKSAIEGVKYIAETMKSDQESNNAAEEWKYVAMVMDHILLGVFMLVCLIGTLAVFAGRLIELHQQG
αS266Cβγδ nAChR, sequence (P09690 24-501 partner): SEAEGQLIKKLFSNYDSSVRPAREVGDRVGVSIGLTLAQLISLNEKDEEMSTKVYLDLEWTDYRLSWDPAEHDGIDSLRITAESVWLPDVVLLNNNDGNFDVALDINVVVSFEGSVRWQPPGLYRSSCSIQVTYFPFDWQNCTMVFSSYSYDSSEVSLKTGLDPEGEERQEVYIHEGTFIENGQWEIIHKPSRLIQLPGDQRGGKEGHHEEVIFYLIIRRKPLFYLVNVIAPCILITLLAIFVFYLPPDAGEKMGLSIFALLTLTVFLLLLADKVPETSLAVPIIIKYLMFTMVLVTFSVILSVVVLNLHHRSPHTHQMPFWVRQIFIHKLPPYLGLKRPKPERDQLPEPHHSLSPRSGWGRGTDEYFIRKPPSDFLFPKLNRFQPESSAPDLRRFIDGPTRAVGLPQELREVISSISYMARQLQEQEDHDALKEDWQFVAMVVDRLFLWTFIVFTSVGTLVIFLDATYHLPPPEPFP
αS266Cβγδ nAChR, sequence (P04760 23-519): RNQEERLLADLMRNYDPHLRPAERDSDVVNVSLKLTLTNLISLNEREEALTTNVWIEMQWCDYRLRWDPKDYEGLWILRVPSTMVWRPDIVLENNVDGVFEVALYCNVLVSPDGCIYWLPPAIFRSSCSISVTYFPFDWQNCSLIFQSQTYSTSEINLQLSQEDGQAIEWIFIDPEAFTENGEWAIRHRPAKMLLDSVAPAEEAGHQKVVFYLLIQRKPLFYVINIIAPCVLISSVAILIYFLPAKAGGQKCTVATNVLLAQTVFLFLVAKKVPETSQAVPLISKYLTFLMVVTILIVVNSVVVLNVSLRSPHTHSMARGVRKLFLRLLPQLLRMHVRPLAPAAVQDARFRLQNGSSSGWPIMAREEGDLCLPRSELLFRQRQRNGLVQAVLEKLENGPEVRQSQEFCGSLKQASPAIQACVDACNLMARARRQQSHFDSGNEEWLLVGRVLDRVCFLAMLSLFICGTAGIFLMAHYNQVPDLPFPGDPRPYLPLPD
αS266Cβγδ nAChR, sequence (P02716 25-520, stated change not applied): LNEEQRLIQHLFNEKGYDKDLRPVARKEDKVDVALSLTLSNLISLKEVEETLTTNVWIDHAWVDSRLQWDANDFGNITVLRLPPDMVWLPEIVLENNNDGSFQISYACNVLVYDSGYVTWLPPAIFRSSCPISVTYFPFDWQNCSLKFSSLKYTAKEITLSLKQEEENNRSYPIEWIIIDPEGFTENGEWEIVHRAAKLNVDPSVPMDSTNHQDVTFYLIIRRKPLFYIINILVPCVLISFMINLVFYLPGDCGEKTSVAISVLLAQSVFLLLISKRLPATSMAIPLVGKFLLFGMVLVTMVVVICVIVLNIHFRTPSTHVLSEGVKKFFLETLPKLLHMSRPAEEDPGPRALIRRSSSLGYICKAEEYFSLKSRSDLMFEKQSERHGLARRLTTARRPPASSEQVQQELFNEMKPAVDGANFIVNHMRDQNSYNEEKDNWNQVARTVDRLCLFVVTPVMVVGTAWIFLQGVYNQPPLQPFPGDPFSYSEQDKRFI

[6] = molecular target: αS268Cβγδ nAChR (Mus musculus, UniProt P02716+P04756+P04760, S288C); assay: Effect of MTS reagent application on subsequent ACh induced current; assay type: cell-based; details: αS268C
αS268Cβγδ nAChR, sequence (P04756 21-457 S288C): as the sequence (P04756 21-457 S286C) above, with C266S, S268C counted along it
αS268Cβγδ nAChR, sequence (P09690 24-501 partner): as the sequence (P09690 24-501 partner) above
αS268Cβγδ nAChR, sequence (P04760 23-519): as the sequence (P04760 23-519) above
αS268Cβγδ nAChR, sequence (P02716 25-520): as the sequence (P02716 25-520, stated change not applied) above

[7] = molecular target: αI274Cβγδ nAChR (Mus musculus, UniProt P02716+P04756+P04760, I294C); assay: Rates of reaction of engineered Cys with MTSEA; assay type: cell-based; details: MTSEA with ACh (EC80-EC100)
[8] = molecular target: αG275Cβγδ nAChR (Mus musculus, UniProt P02716+P04756+P04760, G295C); assay: Rates of reaction of engineered Cys with MTSEA; assay type: cell-based; details: MTSEA with ACh (EC80-EC100)
[9] = molecular target: αE262Cβγδ nAChR (Mus musculus, UniProt P02716+P04756+P04760, E282C); assay: Rates of reaction of engineered Cys with MTSEA; assay type: cell-based; details: MTSEA with ACh (EC80-EC100)
[10] = molecular target: αP265Cβγδ nAChR (Mus musculus, UniProt P02716+P04756+P04760, P285C); assay: Rates of reaction of engineered Cys with MTSEA; assay type: cell-based; details: MTSEA with ACh (EC80-EC100)
[11] = molecular target: αI264Cβγδ nAChR (Mus musculus, UniProt P02716+P04756+P04760, I284C); assay: Rates of reaction of engineered Cys with MTSEA; assay type: cell-based; details: MTSEA with ACh (EC80-EC100)
[12] = molecular target: αT267Cβγδ nAChR (Mus musculus, UniProt P02716+P04756+P04760, T287C); assay: Rates of reaction of engineered Cys with MTSEA; assay type: cell-based; details: MTSEA with ACh (EC80-EC100)
[13] = molecular target: αS269Cβγδ nAChR (Mus musculus, UniProt P02716+P04756+P04760, S289C); assay: Effect of MTS reagent application on subsequent ACh induced current; assay type: cell-based; details: αS269C; MTSES 5 mM, 2 min; ACh EC30-70

SMILES	τ in the presence of ACh, second order reaction rate constant [1]	τ in the presence of ACh, second order reaction rate constant [2]	second-order rate constant [3]	effect of MTSEA application on ACh induced currents ([4]; MTSEA 2 mM, absence of ACh, αS268C)	τ, second order reaction rate constant ([5]; MTSEA applied in the absence of ACh)	τ in the presence of ACh, second order reaction rate constant ([5]; MTSEA with ACh (EC80-EC100))	reaction of MTSEA at this position (successive MTSEA then MTSES application) ([6]; MTSEA 2 mM, 2 min followed by MTSES 5 mM, 2 min on the same oocyte)	τ in the presence of ACh, second order reaction rate constant [7]	τ in the presence of ACh, second order reaction rate constant [8] [M⁻¹ s⁻¹]	τ in the presence of ACh, second order reaction rate constant [9]	τ in the presence of ACh, second order reaction rate constant [10]	τ in the presence of ACh, second order reaction rate constant [11] [M⁻¹ s⁻¹]	τ in the presence of ACh, second order reaction rate constant [12]	% increase of subsequent ACh induced current amplitude [13] [%]	effect of MTSES application on ACh induced currents ([4]; MTSES 5 mM)	% increase of subsequent ACh induced current amplitude ([6]; MTSES 5 mM, 2 min, ACh EC30-70) [%]	effect of MTSES applied after MTSEA on subsequent ACh induced currents ([6]; compared to MTSES applied alone)
CS(=O)(=O)SCCN [MTSEA, methanethiosulfonate ethylammonium]	426 ± 66* M^-1s^-1	398 ± 73*** M^-1s^-1	< 1,000 M^-1s^-1	no effect	12,200 ± 2,200 M^-1s^-1	6,970 ± 1,800 M^-1s^-1	does not react at this position	8.7 ± 2.6*** M^-1s^-1	22.2 ± 3.3	23,000 ± 2,100** M^-1s^-1	3,940 ± 620*** M^-1s^-1	22.8 ± 6.5	5,450 ± 86*** M^-1s^-1				
CS(=O)(=O)SCCS(=O)(=O)[O-].[Na+] [MTSES, methanethiosulfonate ethylsulfonate]														177 ± 37	no functional effect	85 ± 12	similarly increased subsequent ACh induced currents
